Measured values reported in PubChem BioAssay (NCI).
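Growth conditions: 96-well plates. Treatment: test compound, 48 hours, 5 concentrations. Analysis: linear interpolation between bracketing concentrations; unreached endpoints set to highest concentration. TGI marks complete inhibition of growth.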

Tests used:
Experiment in all cases: DTP human tumour cell line panel, 48 h
LOX IMVI melanoma = tested on: LOX IMVI melanoma
SK-MEL-28 melanoma = tested on: SK-MEL-28 melanoma
SNB-75 CNS = tested on: SNB-75 CNS
SK-OV-3 ovarian = tested on: SK-OV-3 ovarian
PC-3 prostate = tested on: PC-3 prostate
SK-MEL-2 melanoma = tested on: SK-MEL-2 melanoma
MDA-MB-435 = tested on: MDA-MB-435
MCF7 breast = tested on: MCF7 breast
CCRF-CEM leukemia = tested on: CCRF-CEM leukemia
M14 melanoma = tested on: M14 melanoma
MDA-MB-231 breast = tested on: MDA-MB-231 breast
SK-MEL-5 melanoma = tested on: SK-MEL-5 melanoma
SN12C renal = tested on: SN12C renal
KM12 colon = tested on: KM12 colon
NCI-H460 lung = tested on: NCI-H460 lung
OVCAR-3 ovarian = tested on: OVCAR-3 ovarian
DU-145 prostate = tested on: DU-145 prostate
HS 578T breast = tested on: HS 578T breast
COLO 205 colon = tested on: COLO 205 colon
RPMI-8226 leukemia = tested on: RPMI-8226 leukemia
HCT-116 colon = tested on: HCT-116 colon
NCI-H23 lung = tested on: NCI-H23 lung
RXF 393 renal = tested on: RXF 393 renal
OVCAR-8 ovarian = tested on: OVCAR-8 ovarian
MDA-N = tested on: MDA-N
K-562 leukemia = tested on: K-562 leukemia
OVCAR-5 ovarian = tested on: OVCAR-5 ovarian
A498 renal = tested on: A498 renal
HCC-2998 colon = tested on: HCC-2998 colon
U251 CNS = tested on: U251 CNS
A549 NSCLC = tested on: A549 NSCLC
IGROV1 ovarian = tested on: IGROV1 ovarian
HCT-15 colon = tested on: HCT-15 colon
T-47D breast = tested on: T-47D breast
OVCAR-4 ovarian = tested on: OVCAR-4 ovarian
SNB-19 CNS = tested on: SNB-19 CNS
SF-295 CNS = tested on: SF-295 CNS
HOP-62 NSCLC = tested on: HOP-62 NSCLC
UACC-257 melanoma = tested on: UACC-257 melanoma
HT29 colon = tested on: HT29 colon
BT-549 breast = tested on: BT-549 breast
UACC-62 melanoma = tested on: UACC-62 melanoma
EKVX NSCLC = tested on: EKVX NSCLC
SF-268 CNS = tested on: SF-268 CNS
MOLT-4 leukemia = tested on: MOLT-4 leukemia
CAKI-1 renal = tested on: CAKI-1 renal
TK-10 renal = tested on: TK-10 renal
SW-620 colon = tested on: SW-620 colon
HOP-92 NSCLC = tested on: HOP-92 NSCLC
UO-31 renal = tested on: UO-31 renal
786-0 renal = tested on: 786-0 renal
ACHN renal = tested on: ACHN renal
NCI-H226 lung = tested on: NCI-H226 lung
SR leukemia = tested on: SR leukemia
NCI/ADR-RES ovarian = tested on: NCI/ADR-RES ovarian
NCI-H522 lung = tested on: NCI-H522 lung
SF-539 CNS = tested on: SF-539 CNS
HL-60(TB) leukemia = tested on: HL-60(TB) leukemia
MALME-3M melanoma = tested on: MALME-3M melanoma

Measured: TGI

NC(CC1=CCC=CC1)C(=O)O (configuration not stated)
not listed: NCI-H226 lung | SR leukemia | NCI/ADR-RES ovarian | NCI-H522 lung | SF-539 CNS | HL-60(TB) leukemia | MALME-3M melanoma
> 100 µM: all other assays above

NC(=O)CC(N=C1C(=O)OC(C(O)CO)C1=NC(CC(N)=O)C(=O)O)C(=O)O (configuration not stated)
not listed: LOX IMVI melanoma | OVCAR-3 ovarian | OVCAR-5 ovarian | BT-549 breast
> 100 µM: all other assays above
